# According to ChEMBL document CHEMBL3046360, “Design, synthesis and preliminary antiviral screening of new N-phenylpyrazole and dihydroisoxazole derivatives” (Med Chem Res, 2010):
# Activity calls are given as the source filed them. The calls are words filed in the database; no cut-off is given here.
# Key:
# [1] = tested on: Vesicular stomatitis virus; assay: Antiviral activity against Vesicular stomatitis virus infected HEL cells assessed as inhibition of virus-induced cytopathic effect after 3 days by MTT assay; type: functional, organism-based; conditions: 72 h
# [2] = Cytotoxicity against Homo sapiens (human) HEL cells after 3 days by microscopic analysis; type: cell-based
# Human alphaherpesvirus 2 = assay: Antiviral activity against Human herpesvirus 2 strain G infected HEL cells assessed as inhibition of virus-induced cytopathic effect after 3 days by MTT assay; type: functional, organism-based; conditions: Human alphaherpesvirus 2, strain G, 72 h
# Human alphaherpesvirus 1 [3] = assay: Antiviral activity against acyclovir-resistant TK-deficient Hepres simplex virus 1 KOS infected in HEL cells assessed as inhibition of virus-induced cytopathic effect after 3 days by MTT assay; type: functional, organism-based; conditions: Human alphaherpesvirus 1, KOS, 72 h
# [4] = Cytotoxicity against Chlorocebus aethiops (African green monkey) Vero cells after 3 days by microscopic analysis; type: cell-based; conditions: chlorocebus sabaeus
# Hepatovirus A [5] = assay: Antiviral activity against Hepatitis A virus infected Vero cells assessed as reduction in viral plaque at 10 ug/ml after overnight incubation by crystal violet staining; type: functional; set-up: scale not given: the % may be the effect or the level left
# [6] = tested on: Human immunodeficiency virus 1; assay: Antiviral activity against Human immunodeficiency virus 1 IIIB infected MT4 cells assessed as inhibition of virus-induced cytopathic effect up to 20 ug/ml after 5 days by MTT assay; type: functional, organism-based
# Human alphaherpesvirus 1 [7] = assay: Antiviral activity against Human herpesvirus 1 infected Vero cells assessed as reduction in viral plaque at 20 ug/ml after overnight incubation by crystal violet staining; type: functional; set-up: scale not given: the % may be the effect or the level left
# Hepatovirus A [8] = assay: Antiviral activity against Hepatitis A virus infected Vero cells assessed as reduction in viral plaque at 20 ug/ml after overnight incubation by crystal violet staining; type: functional; set-up: scale not given: the % may be the effect or the level left
# Human alphaherpesvirus 1 [9] = assay: Antiviral activity against Human herpesvirus 1 infected Vero cells assessed as reduction in viral plaque at 10 ug/ml after overnight incubation by crystal violet staining; type: functional; set-up: scale not given: the % may be the effect or the level left
# [10] = tested on: Human immunodeficiency virus 2; assay: Antiviral activity against Human immunodeficiency virus type 2 (ISOLATE ROD) infected MT4 cells assessed as inhibition of virus-induced cytopathic effect up to 20 ug/ml after 5 days by MTT assay; type: functional, organism-based
# Sindbis virus = assay: Antiviral activity against Sindbis virus infected Vero cells assessed as inhibition of virus-induced cytopathic effect after 3 days by MTT assay; type: functional, organism-based; conditions: 72 h
# [11] = tested on: Respiratory syncytial virus; assay: Antiviral activity against Respiratory syncytial virus infected HeLa cells assessed as inhibition of virus-induced cytopathic effect after 3 days by MTT assay; type: functional, organism-based; conditions: human respiratory syncytial virus, 72 h
# Punta Toro virus = assay: Antiviral activity against Punta Toro virus infected Vero cells assessed as inhibition of virus-induced cytopathic effect after 3 days by MTT assay; type: functional, organism-based; conditions: 72 h
# [12] = tested on: Vesicular stomatitis virus; assay: Antiviral activity against Vesicular stomatitis virus infected HeLa cells assessed as inhibition of virus-induced cytopathic effect after 3 days by MTT assay; type: functional, organism-based; conditions: 72 h
# Coxsackievirus B4 [13] = assay: Antiviral activity against Human coxsackievirus B4 infected HeLa cells assessed as inhibition of virus-induced cytopathic effect after 3 days by MTT assay; type: functional, organism-based; conditions: Enterovirus B, 72 h
# Human respirovirus 3 = assay: Antiviral activity against Human parainfluenza virus 3 infected Vero cells assessed as inhibition of virus-induced cytopathic effect after 3 days by MTT assay; type: functional, organism-based; conditions: Human respirovirus 3, Vero, 72 h
# Reovirus sp. = assay: Antiviral activity against Mammalian orthoreovirus 1 virus infected Vero cells assessed as inhibition of virus-induced cytopathic effect after 3 days by MTT assay; type: functional, organism-based; conditions: 72 h
# Coxsackievirus B4 [14] = assay: Antiviral activity against Human coxsackievirus B4 infected Vero cells assessed as inhibition of virus-induced cytopathic effect after 3 days by MTT assay; type: functional, organism-based; conditions: Enterovirus B, 72 h
# [15] = Cytotoxicity against Homo sapiens (human) HeLa cells after 3 days by microscopic analysis; type: cell-based
# Human alphaherpesvirus 1 [16] = assay: Antiviral activity against Human herpesvirus 1 strain KOS infected in HEL cells assessed as inhibition of virus-induced cytopathic effect after 3 days by MTT assay; type: functional, organism-based; conditions: Human alphaherpesvirus 1, KOS, 72 h
# Vaccinia virus = assay: Antiviral activity against Vaccinia virus infected in HEL cells assessed as inhibition of virus-induced cytopathic effect after 3 days by MTT assay; type: functional, organism-based; conditions: Orthopoxvirus vaccinia, 72 h
# [17] = Selectivity ratio of MCC for human HEL cells to EC50 for acyclovir-resistant TK-deficient Hepres simplex virus 1 KOS; type: ADME, cell-based
# [18] = Selectivity ratio of MCC for human HEL cells to EC50 for Herpes simplex virus 2 G; type: ADME, cell-based
# [19] = Selectivity ratio of MCC for human HEL cells to EC50 for Herpes simplex virus 1 KOS; type: ADME, cell-based
# [20] = Selectivity ratio of MCC for human HEL cells to EC50 for Vesicular stomatitis virus; type: ADME, cell-based
# [21] = Selectivity ratio of MCC for human HEL cells to EC50 for Vaccinia virus; type: ADME, cell-based
Compound,EC50 [1],MCC at 72 h [2],EC50 (Human alphaherpesvirus 2),EC50 (Human alphaherpesvirus 1 [3]),MCC at 72 h [4],Activity (Hepatovirus A [5]) [%],Activity [6],Activity (Human alphaherpesvirus 1 [7]) [%],Activity (Hepatovirus A [8]) [%],Activity (Human alphaherpesvirus 1 [9]) [%],Activity [10],EC50 (Sindbis virus),EC50 [11],EC50 (Punta Toro virus),EC50 [12],EC50 (Human respirovirus 3),EC50 (Reovirus sp.),EC50 (Coxsackievirus B4 [14]),MCC at 72 h [15],EC50 (Human alphaherpesvirus 1 [16]),also measured
O=c1[nH]c(=O)n([C@H]2C[C@H](O)[C@@H](CO)O2)cc1/C=C/Br [BRIVUDINE],> 250 µM,> 250 µM,126 µM,> 250 µM,,,,,,,,,,,,,,,,,
Clc1ccc(C2=NOC(c3ccc(OCc4ccccc4)cc3)C2)cc1 (stereo not given),,,,,> 100 µg/mL,10,inactive,60,58,38,inactive,,,,,,,,,,
Brc1ccc(C2=NOC(c3ccc(OCc4ccccc4)cc3)C2)cc1 (stereo not given),,,,,≥ 20 µg/mL,7.3,inactive,67,21,26.1,inactive,,,,,,,,,,
Nc1ncnc2c1ncn2C[C@H](O)CO [(S)-DHPA],,,,,> 250 µM,,,,,,,> 250 µM,> 250 µM,> 250 µM,> 250 µM,> 250 µM,> 250 µM,> 250 µM,> 250 µM,,EC50 (Coxsackievirus B4 [13]): > 250 µM
Nc1ccn(C[C@@H](CO)OCP(=O)(O)O)c(=O)n1 [CIDOFOVIR],> 250 µM,> 250 µM,5 µM,,,,,,,,,,,,,,,,,3 µM,
Cc1ccc(C2=NOC(c3ccc(OCc4ccccc4)cc3)C2)cc1 (stereo not given),,,,,> 100 µg/mL,27,inactive,79,46,45,inactive,,,,,,,,,,
Nc1nc2c(ncn2COC(CO)CO)c(=O)[nH]1 [GANCICLOVIR],> 100 µM,> 100 µM,0.08 µM,6 µM,,,,,,,,,,,,,,,,,EC50 (Vaccinia virus): > 100 µM
Cc1ccc(C2=NN(c3ccccc3)C(c3ccc(OCc4ccccc4)cc3)C2)cc1 (stereo not given),> 20 µg/mL,100 µg/mL,> 20 µg/mL,> 20 µg/mL,100 µg/mL,14,inactive,58,39,31,inactive,> 20 µg/mL,> 20 µg/mL,> 20 µg/mL,> 20 µg/mL,> 20 µg/mL,> 20 µg/mL,> 20 µg/mL,100 µg/mL,> 20 µg/mL,selectivity ratio [17]: > 5; selectivity ratio [18]: > 5; selectivity ratio [19]: > 5; selectivity ratio [20]: > 5; EC50 (Coxsackievirus B4 [13]): > 20 µg/mL; selectivity ratio [21]: > 5; EC50 (Vaccinia virus): > 20 µg/mL
c1ccc(COc2ccc(C3CC(c4ccccc4)=NN3c3ccccc3)cc2)cc1 (stereo not given),> 20 µg/mL,100 µg/mL,> 20 µg/mL,> 20 µg/mL,100 µg/mL,7,inactive,30,23,0,inactive,> 20 µg/mL,> 20 µg/mL,> 20 µg/mL,> 20 µg/mL,> 20 µg/mL,> 20 µg/mL,> 20 µg/mL,100 µg/mL,> 20 µg/mL,selectivity ratio [17]: > 5; selectivity ratio [18]: > 5; selectivity ratio [19]: > 5; selectivity ratio [20]: > 5; EC50 (Coxsackievirus B4 [13]): > 20 µg/mL; selectivity ratio [21]: > 5; EC50 (Vaccinia virus): > 20 µg/mL
NC(=O)c1ncn([C@@H]2O[C@H](CO)[C@@H](O)[C@H]2O)n1 [RIBAVIRIN],> 250 µM,> 250 µM,> 250 µM,> 250 µM,> 250 µM,,,,,,,> 250 µM,,,,45 µM,> 250 µM,> 250 µM,> 250 µM,> 250 µM,
c1ccc(COc2ccc(C3CC(c4ccccc4)=NO3)cc2)cc1 (stereo not given),,,,,> 100 µg/mL,0,inactive,15,2,3,inactive,,,,,,,,,,
Clc1ccc(C2=NN(c3ccccc3)C(c3ccc(OCc4ccccc4)cc3)C2)cc1 (stereo not given),> 20 µg/mL,100 µg/mL,> 20 µg/mL,> 20 µg/mL,100 µg/mL,0,inactive,43,21,19,inactive,> 20 µg/mL,> 20 µg/mL,> 20 µg/mL,> 20 µg/mL,> 20 µg/mL,> 20 µg/mL,> 20 µg/mL,≥ 20 µg/mL,> 20 µg/mL,selectivity ratio [17]: > 5; selectivity ratio [18]: > 5; selectivity ratio [19]: > 5; selectivity ratio [20]: > 5; EC50 (Coxsackievirus B4 [13]): > 20 µg/mL; selectivity ratio [21]: > 5; EC50 (Vaccinia virus): > 20 µg/mL
Brc1ccc(C2=NN(c3ccccc3)C(c3ccc(OCc4ccccc4)cc3)C2)cc1 (stereo not given),> 20 µg/mL,100 µg/mL,> 20 µg/mL,> 20 µg/mL,≥ 20 µg/mL,2,inactive,50,16,13.3,inactive,> 20 µg/mL,> 20 µg/mL,> 20 µg/mL,> 20 µg/mL,> 20 µg/mL,> 20 µg/mL,> 20 µg/mL,100 µg/mL,> 20 µg/mL,selectivity ratio [17]: > 5; selectivity ratio [18]: > 5; selectivity ratio [19]: > 5; selectivity ratio [20]: > 5; EC50 (Coxsackievirus B4 [13]): > 20 µg/mL; selectivity ratio [21]: > 5; EC50 (Vaccinia virus): > 20 µg/mL
